Consider nine molecules from US20260217716A1, “ANDROGEN RECEPTOR MODULATORS AND METHODS FOR THEIR USE” (Capulus Therapeutics, LLC, priority 2022, published 2026).

A word on the pIC50: it is −log10 of the IC50, conventionally taken in molar units.

Structures are written as SMILES. Changes are numbered by the printed parent chain. pIC50: −log10 of the molar value. Read-outs that look alike come from different tables or passages of the source. Bounds are passed on as bounds.

The target in data set [1] is T1, Human androgen receptors (Homo sapiens, UniProt P10275, T878A).
T1 construct: Human androgen receptors obtained from human LNCaP cells were used; host or cells: human LNCaP cells
T1 sequence (P10275 1-920 T878A): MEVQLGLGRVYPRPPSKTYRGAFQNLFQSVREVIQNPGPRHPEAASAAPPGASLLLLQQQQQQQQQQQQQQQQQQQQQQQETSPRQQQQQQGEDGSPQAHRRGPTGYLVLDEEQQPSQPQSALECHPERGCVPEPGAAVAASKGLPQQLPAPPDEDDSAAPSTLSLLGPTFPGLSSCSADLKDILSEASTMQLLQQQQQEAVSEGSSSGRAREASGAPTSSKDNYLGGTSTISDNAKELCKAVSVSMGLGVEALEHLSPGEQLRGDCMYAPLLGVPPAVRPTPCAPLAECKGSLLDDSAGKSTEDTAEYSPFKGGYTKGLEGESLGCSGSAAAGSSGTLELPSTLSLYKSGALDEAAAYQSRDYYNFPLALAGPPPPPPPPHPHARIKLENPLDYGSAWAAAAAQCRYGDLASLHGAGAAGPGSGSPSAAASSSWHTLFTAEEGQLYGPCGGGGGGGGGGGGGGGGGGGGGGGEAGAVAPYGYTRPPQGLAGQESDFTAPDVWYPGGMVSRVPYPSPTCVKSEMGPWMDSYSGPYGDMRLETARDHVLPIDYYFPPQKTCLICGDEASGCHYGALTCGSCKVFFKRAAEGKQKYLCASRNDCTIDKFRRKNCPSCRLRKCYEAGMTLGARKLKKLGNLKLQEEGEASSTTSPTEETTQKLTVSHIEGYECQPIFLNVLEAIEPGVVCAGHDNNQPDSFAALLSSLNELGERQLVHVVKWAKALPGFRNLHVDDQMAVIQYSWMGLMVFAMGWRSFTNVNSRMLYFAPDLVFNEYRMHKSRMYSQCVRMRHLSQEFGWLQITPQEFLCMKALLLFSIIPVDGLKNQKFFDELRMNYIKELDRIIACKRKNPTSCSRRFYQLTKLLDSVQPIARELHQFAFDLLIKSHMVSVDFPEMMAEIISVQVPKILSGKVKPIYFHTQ
Kind of data set: Biochemical AR LBD antagonism (Eurofins AR radioligand binding assay). How it is done:
Human androgen receptors obtained from human LNCaP cells were used in modified HEPES buffer pH 7.4. A 70 μg‡ aliquot was incubated with 0.5 nM [3H] Methyltrienolone for 20 h at 4° C. Non-specific binding was estimated in the presence of 1 μM testosterone. Receptors were filtered and washed, the filters were then counted to determine [3H] Methyltrienolone specifically bound. Compounds were screened at 10 μM.
Furthermore, as noted earlier, most clinically relevant AR inhibitors target the ligand binding domain (LBD) of the androgen receptor, and these inhibitors can lose efficacy due to point mutations in the LBD. Given that the AR protein contains multiple sub-domains, targeting other domains is an attractive approach for new inhibitors. […] Therefore, the compounds as described herein may be interacting with other subdomains in the AR protein, namely the N-terminal domain.

Data set [2] can be described thus: Mouse liver microsome stability. The class given is in vitro ADME. Particulars: 1 μM. How it is done:
(§1) Preincubation mixture 2.5 μL Test Cpd. +75 μL Liver microsomes (human or mouse source) @ 3.33 mg/mL+85 µL of 100 mM potassium phosphate buffer (preincubate for 10 min @ 37° C.). Incubation mixture 62 μL of cofactor (2.85 mM)+Remaining incubation mixture (Incubated for 60 min @ 37° C.). Sample preparation 25 μL incubation mixture+200 μL of acetonitrile containing internal standard+Vortex 5 min @ 1200 rpm+Centrifuge 10 min @ 4000 rpm. Supernatant diluted 2-fold with water and injected on LC-MS/MS.
A general note: Liver microsomes are a subcellular fraction often used to study metabolism.

In data set [3] the target is T2, human AR (Homo sapiens, UniProt P10275).
T2 construct: Reporter Cells used in these assays expressed a native receptor (AR)
T2 sequence (P10275 1-920): T1 sequence (P10275 1-920 T878A) with A878T
Kind of data set: Indigo Biosciences AR reporter cell assay (AR inhibition, antagonist mode). The class given is cell-based. The note with it: for pIC50: luciferase reporter cells, 24 hr, EC80 of agonist 5α-dihydro-11-keto testosterone, read-out: AR Inhibition Indigo Cell Based: Avg IC50. How it is done:
The aim of this study was to evaluate compounds 1-12 and the comparative compounds 1-2 for inhibition activities against human AR. Reporter Cells used in these assays expressed a native receptor (AR). The reporter gene, firefly luciferase, is functionally linked to an upstream receptor-specific genetic response element (GRE). Reporter cells were treated with eight concentrations, starting at 50 μM and following with 3.17-fold dilutions. Single treatment concentration was performed (n=1). Assay performance was validated using the reference antagonist hydroxy flutamide. • Step 1: A suspension of reporter cells was prepared in Cell Recovery Medium (CRM). Reporter cells were first supplemented with 2×-EC80 concentration of the reference agonist, 5α-dihydro-11-keto testosterone, then 100 μl of the Reporter Cell suspension was dispensed into wells of a white 96-well assay plate. • Step 2: Test compound master stocks were diluted in DMSO to generate solutions at ‘500×-concentration’ relative to the final treatment concentration and diluted directly into INDIGO's Compound Screening Medium (CSM; containing charcoal-stripped FBS) to generate ‘2×-concentration’ treatment media. This was diluted into the wells to the final concentration. Assay plates were incubated at 37° C., 5% CO2 and ~70% humidity for 24 hr. • Step 3: Following the incubation period, wells were rinsed once with Live Cell Multiplex (LCM) Buffer, then LCM substrate was added. Following incubation at room temperature for 15 min, LCM substrate was discarded and 100 μL/well of luciferase detection reagent was added. Subsequently, fluorescence was measured to determine the relative number of live cells per assay well. RLU values were quantified after a 10 min incubation period at room temperature to determine nuclear receptor activities.
A general note: In a reporter assay the amount or activity of a reporter protein is the signal.

Data set [4] is described as follows: Human liver microsome stability. The class given is in vitro ADME. The note with it: 1 μM. How it is done:
as §1

The mark [5] stands for this setting: Table 3, read-out: Biochemical AR LBD Antagonism: Avg IC50.
Setting [6] is: Table 5, mouse liver microsomes.
The mark [7] stands for this setting: Table 5, human liver microsomes.
[8] abbreviates: Table 4, read-out: Biochemical AR LBD Antagonism: Average IC50.
Where [9] appears, read: Table 6, mouse liver microsomes.
Where [10] appears, read: Table 6, human liver microsomes.

Turning to `CC(Nc1ccc2nnc(C(F)(F)F)n2n1)c1ccc(F)cc1` (racemic) [Comparative Compound 1, (R, S)—N-(1-(4-fluorophenyl)ethyl)-3-(trifluoromethyl)-[1,2,4]triazolo[4,3-b]pyridazin-6-amine, reference compound], the pIC50 in data set [1] (setting [5]) was less than 6.30; in data set [3] (Table 1) it was 6.30 to 7.29. In addition, the “Mouse LM: Rem @ 60 min” value in data set [2] (setting [6]) was “+++ (>60.1: “+++”)”. Further, the “Human LM: Rem @ 60 min” value in data set [4] (setting [7]) was “+++ (>60.1: “+++”)”.
Regarding `C[C@H](Nc1ccc2nnc(C(F)(F)F)n2n1)c1ccc(F)cc1` [Comparative Compound 2, (S)—N-(1-(4-fluorophenyl)ethyl)-3-(trifluoromethyl)-[1,2,4]triazolo[4,3-b]pyridazin-6-amine, reference compound], the pIC50 in data set [1] (setting [5]) and in data set [3] (Table 1) was less than 6.30 throughout.
With `C[C@@H](Nc1ccc2nnc(C(F)(F)F)n2n1)c1ccc(F)cc1` [Compound 1, (R)—N-(1-(4-fluorophenyl)ethyl)-3-(trifluoromethyl)-[1,2,4]triazolo[4,3-b]pyridazin-6-amine], the pIC50 in data set [1] (setting [5]) was less than 6.30; in data set [1] (setting [8]), less than 6.30; in data set [3] (Table 1), greater than 7.30; in data set [3] (Table 2), greater than 7.30. For the same molecule, the “Mouse LM: Rem @ 60 min” value in data set [2] (setting [6]) and in data set [2] (setting [9]) was “++ (30.1-60: “++”)” in each case. The “times more potent than the racemic mixture (Comparative Compound 1) in the cell-based activity assay” value in data set [3] (versus Comparative Compound 1) is reported as ~ 2 times. The “times more potent than the S isomer (Comparative Compound 2) in the cell-based activity assay” value in data set [3] (versus Comparative Compound 2) is ~ 150 times. In addition, the “Human LM: Rem @ 60 min” value in data set [4] (setting [7]) and in data set [4] (setting [10]) was “+++ (>60.1: “+++”)” throughout.
In the case of `C[C@@H](Nc1ccc2nnc(C(F)(F)F)n2n1)c1cc(F)cc(F)c1` [Compound 2, (R)—N-(1-(3,5-difluorophenyl)ethyl)-3-(trifluoromethyl)-[1,2,4]triazolo[4,3-b]pyridazin-6-amine], the pIC50 was less than 6.30 in data set [1] (setting [8]) and greater than 7.30 in data set [3] (Table 2). For the same molecule, the “Mouse LM: Rem @ 60 min” value in data set [2] (setting [9]) is “+++ (>60.1: “+++”)”. For the same molecule, the “Human LM: Rem @ 60 min” value in data set [4] (setting [10]) is given as “+++ (>60.1: “+++”)”.
On to `CC[C@@H](Nc1ccc2nnc(C(F)(F)F)n2n1)c1ccc(F)cc1` [Compound 3, (R)—N-(1-(4-fluorophenyl)propyl)-3-(trifluoromethyl)-[1,2,4]triazolo[4,3-b]pyridazin-6-amine], for which the results for the pIC50 in data set [1] (setting [8]) and in data set [3] (Table 2) were less than 6.30 and greater than 7.30, respectively. Moreover, the “Mouse LM: Rem @ 60 min” value in data set [2] (setting [9]) is “+++ (>60.1: “+++”)”. Besides, the “Human LM: Rem @ 60 min” value in data set [4] (setting [10]) is given as “+++ (>60.1: “+++”)”.
On to `C[C@@H](Nc1ccc2nnc(C(F)(F)F)n2n1)c1ccc(C(F)(F)F)cc1` [Compound 4, (R)-3-(trifluoromethyl)-N-(1-(4-(trifluoromethyl)phenyl)ethyl)-[1,2,4]triazolo[4,3-b]pyridazin-6-amine], for which the “Mouse LM: Rem @ 60 min” value in data set [2] (setting [9]) is listed as “+++ (>60.1: “+++”)”. Also, the pIC50 in data set [3] (Table 2) is 6.30 to 7.29. The “Human LM: Rem @ 60 min” value in data set [4] (setting [10]) was “+++ (>60.1: “+++”)”.
Consider `C[C@H](c1ccc(F)cc1)N(C)c1ccc2nnc(C(F)(F)F)n2n1` [Compound 5, (R)—N-(1-(4-fluorophenyl)ethyl)-N-methyl-3-(trifluoromethyl)-[1,2,4]triazolo[4,3-b]pyridazin-6-amine], for which the pIC50 in data set [1] (setting [8]) and in data set [3] (Table 2) was 6.30 to 7.29 in each case. Moreover, the “Mouse LM: Rem @ 60 min” value in data set [2] (setting [9]) was “+ (0-30: “+”)”. Also, the “Human LM: Rem @ 60 min” value in data set [4] (setting [10]) was “+++ (>60.1: “+++”)”.
Consider `C[C@@H](Nc1ccc2nnc(C(F)(F)F)n2n1)c1ccc(C#N)cc1` [Compound 9, (R)-4-(1-((3-(trifluoromethyl)-[1,2,4]triazolo[4,3-b]pyridazin-6-yl)amino)ethyl)benzonitrile], for which the pIC50 in data set [3] (Table 2) was less than 6.30.
Regarding `C[C@@H](Nc1ccc2nnc(C3CC3)n2n1)c1ccc(F)cc1` [Compound 11, (R)-3-cyclopropyl-N-(1-(4-fluorophenyl)ethyl)-[1,2,4]triazolo[4,3-b]pyridazin-6-amine], in data set [3] (Table 2), the pIC50 is less than 6.30.
